Measured values reported in patent US20230065953A1, “NOVEL HETEROARYL-TRIAZOLE COMPOUNDS AS PESTICIDES” (Bayer Aktiengesellschaft, priority 2019, published 2023).

Experiments:
Type in all cases: in vivo
[1] = tested on: adult flies Musca domestica strain WHO-N; assay: Musca domestica test (MUSCDO surface treatment & contact assay); conditions: 24 hours after contact, read-out: efficacy (mortality); for mortality at 4 mg/m2: surface concentration 4 mg/m^2, 30 min exposure; for mortality at 20 mg/m2: surface concentration 20 mg/m^2, 30 min exposure
Procedure, shortened: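 Compound in acetone at 2 mg/ml with 2000 ppm RME pipetted onto glazed tile; after acetone evaporates, adult WHO-N flies exposed on dried surface for 30 min. Percent mortality scored 24 h after contact.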

[2] = tested on: larvae of the banded cucumber beetle (Diabrotica balteata); assay: Diabrotica balteata spray test; conditions: 168 h, 100 g/ha (=32 μg/well), wheat seeds, after 7 days, read-out: efficacy (seedling growth)
Procedure, shortened: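 Wheat seeds germinated 1 day on agar were sprayed with compound in acetone/dimethylformamide with alkylarylpolyglycol ether emulsifier, diluted in emulsifier-containing water. Each unit then received 10-20 larvae, and % efficacy was scored after 7 days.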

[3] = tested on: adult cat fleas (Ctenocephalides felis); assay: Ctenocephalides felis in-vitro contact test, adult cat flea; conditions: 5 μg/cm^2 (=500 g/ha), after 48 hours
Procedure, shortened: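 Acetone solutions of compound were coated onto inner walls of glass tubes (900 ppm giving 5 μg/cm^2) and dried; 5-10 adult C. felis were then held 48 h at room temperature. Efficacy = % fleas dead or moribund, judged by inability to escape a 45-50° C heating plate within 5 min.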

[4] = tested on: adult brown dog ticks (Rhipicephalus sanguineus); assay: Rhipicephalus sanguineus in-vitro contact test with adult brown dog ticks; conditions: 5 μg/cm^2 (=500 g/ha), after 48 hours, read-out: efficacy (ticks dead or moribund)
Procedure, shortened: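 Compound in acetone was coated onto inner walls of glass tubes by rotation (2 h, 30 rpm); 900 ppm gives 5 μg/cm^2. After drying, 5-10 adult ticks were enclosed per tube at room temperature; after 48 h, heat-escape test at 45-50° C scored dead/moribund ticks as % efficacy.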

[5] = tested on: adult unfed cat fleas (Ctenocephalides felis); assay: Ctenocephalides felis oral test; conditions: 48 h
Procedure, shortened: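 About 20 adult unfed fleas fed through parafilm on cattle blood containing compound (DMSO stock diluted in blood), blood held at 37 °C and fleas at room temperature. Mortality (%) scored after 2 days.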

[6] = tested on: adult engorged female ticks (Rhipicephalus microplus); assay: Rhipicephalus (Boophilus) microplus injection test; conditions: 168 h, egg deposition after 7 days, read-out: efficacy (infertile eggs); for pest or weed control at 0.004 mg: 4 μg/animal
Procedure, shortened: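 Five adult engorged female ticks each injected into the abdomen with 1 μL of compound in DMSO, then kept in a climate chamber. Fertile egg deposition assessed after 7 days, with unclear eggs held until hatching around 42 days; efficacy 100% means all eggs infertile, 0% all fertile.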

[7] = tested on: green peach aphid (Myzus persicae); assay: Myzus persicae oral test; conditions: 120 h
Procedure, shortened: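 Compound was dissolved in acetone, diluted with water and mixed into IPL41 insect medium with sugar under a parafilm seal. A mixed aphid population fed through the parafilm, and mortality (%) was scored after 5 days.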

[8] = tested on: fall armyworm larvae (Spodoptera frugiperda); assay: Spodoptera frugiperda spray test (maize leaf sections); conditions: 168 h
Procedure, shortened: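 Maize leaf sections sprayed with compound in acetone/dimethylformamide, diluted in water with 1000 ppm alkylarylpolyglycol ether emulsifier. Dried sections infested with fall armyworm larvae. Mortality (%) scored after 7 days; 100% = all caterpillars killed.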

Row | SMILES | mortality at 4 mg/m2 [1] [%] | mortality at 20 mg/m2 [1] [%] | pest or weed control at 32 µg/disc, 100 g/ha [2] [%] | efficacy (fleas dead or moribund) [3] [%] | pest or weed control at 5 µg/cm2, 500 g/ha [4] [%] | mortality at 100 ppm [5] [%] | pest or weed control at 0.004 mg [6] [%] | pest or weed control at 0.02 mg ([6]; 20 μg/animal) [%] | mortality at 4 ppm [7] [%] | mortality at 100 g/ha [8] [%]
1 | C[C@H](NC(=O)c1cc(C(F)(F)F)cc(C(F)(F)F)c1)c1ncnn1-c1ncc(C#N)s1 [I-2] | 90 to 100 | 80 to 100 | 100 | 80 | 100 | 100 | 100 | 100 | 100 | 100
2 | Cc1nc([C@H](C)NC(=O)c2cc(C(F)(F)F)cc(C(F)(F)F)c2)n(-c2ncc(C(=O)N(C)C)s2)n1 [I-5, 2-(5-{(1S)-1-[3,5-bis(trifluoromethyl)benzamido]ethyl}-3-methyl-1H-1,2,4-triazol-1-yl)-N,N-dimethyl-1,3-thiazole-5-carboxamide] | 90 to 100 | – | 100 | 100 | 100 | 100 | 100 | – | 100 | 100
3 | Cc1nc([C@H](C)NC(=O)c2cc(C(F)(F)F)cc(C(F)(F)F)c2)n(-c2ncc(C(N)=O)s2)n1 [I-21, 2-(5-{(1S)-1-[3,5-bis(trifluoromethyl)benzamido]ethyl}-3-methyl-1H-1,2,4-triazol-1-yl)-1,3-thiazole-5-carboxamide] | 90 to 100 | 80 to 100 | 100 | 100 | 100 | 100 | 100 | – | 100 | 100
4 | Cc1nc([C@H](C)NC(=O)c2cc(C(F)(F)F)cc(C(F)(F)F)c2)n(-c2ncc(C(=O)N(C)CC3CC3)s2)n1 [I-4] | – | 80 to 100 | 100 | 100 | 100 | 100 | 100 | – | 100 | 100
5 | Cc1nc([C@H](C)NC(=O)c2cc(C(F)(F)F)cc(C(F)(F)F)c2)n(-c2ncc(C(=O)N(C)CC#N)s2)n1 [I-9] | – | 80 to 100 | 100 | 100 | 100 | 100 | 100 | – | 100 | 100
6 | CCN(C)C(=O)c1cnc(-n2nc(C)nc2[C@H](C)NC(=O)c2cc(C(F)(F)F)cc(C(F)(F)F)c2)s1 [I-6] | 90 to 100 | 80 to 100 | 100 | 100 | 100 | 100 | 100 | – | 100 | 100
